BindingDB's records for doi:10.1016/j.bmc.2005.09.050 (Lund University, 2006)

What was measured:
Test in all cases: Fluorescence Polarization Assay
Galectin-1 = Galectin-1 (Homo sapiens, UniProt P09382); conditions: pH 7.2; 24 °C
Method: (§1) In fluorescence polarization measurements, a fluorescent probe was excited with plane-polarized light and the degree of polarization remaining in the emitted light is measured. When the probe is bound to protein, it rotates slower than when free, and the remaining fluorescence polarization is higher. The fluorescent anisotropy value for a probe-protein mixture is the average of the value for bound and free probe. For the direct binding asaay, the data (anisotropy, A in mA vs galectin concentration, [G] in uM) were fitted to a simplified formula to obtain Kd.

Galectin-3 = Galectin-3 (Homo sapiens, UniProt P17931); conditions: pH 7.2; 24 °C
Sequence of Galectin-3 (P17931 whole entry): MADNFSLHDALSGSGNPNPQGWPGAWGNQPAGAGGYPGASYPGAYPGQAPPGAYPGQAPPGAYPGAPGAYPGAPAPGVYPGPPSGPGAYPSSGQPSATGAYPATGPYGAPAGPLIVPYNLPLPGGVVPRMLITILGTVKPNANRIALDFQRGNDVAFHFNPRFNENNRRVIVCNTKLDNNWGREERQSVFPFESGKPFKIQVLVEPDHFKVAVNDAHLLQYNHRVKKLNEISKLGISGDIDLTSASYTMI
Method: as §1

Galectin-7 = Galectin-7 (Homo sapiens, UniProt P47929)
Sequence of Galectin-7 (P47929 whole entry): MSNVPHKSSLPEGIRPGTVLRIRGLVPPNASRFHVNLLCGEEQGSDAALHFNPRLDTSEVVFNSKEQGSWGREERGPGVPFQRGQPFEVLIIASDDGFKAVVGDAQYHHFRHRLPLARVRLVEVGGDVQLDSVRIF
Method: as §1

Galectin-8 = biological target: T1, Galectin-8 (Homo sapiens, UniProt O00214)
T1 sequence (O00214 whole entry): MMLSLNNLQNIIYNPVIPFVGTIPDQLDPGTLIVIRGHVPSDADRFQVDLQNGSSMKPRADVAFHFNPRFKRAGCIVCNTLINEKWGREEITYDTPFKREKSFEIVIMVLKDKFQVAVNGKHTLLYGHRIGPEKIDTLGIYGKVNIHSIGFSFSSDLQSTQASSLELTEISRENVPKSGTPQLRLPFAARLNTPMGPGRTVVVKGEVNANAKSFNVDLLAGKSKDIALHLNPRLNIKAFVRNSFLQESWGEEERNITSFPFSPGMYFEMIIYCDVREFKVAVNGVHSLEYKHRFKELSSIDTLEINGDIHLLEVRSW
Method: as §1

Galectin-9 = Galectin-9 (Homo sapiens, UniProt O00182)
Sequence of Galectin-9 (O00182 whole entry): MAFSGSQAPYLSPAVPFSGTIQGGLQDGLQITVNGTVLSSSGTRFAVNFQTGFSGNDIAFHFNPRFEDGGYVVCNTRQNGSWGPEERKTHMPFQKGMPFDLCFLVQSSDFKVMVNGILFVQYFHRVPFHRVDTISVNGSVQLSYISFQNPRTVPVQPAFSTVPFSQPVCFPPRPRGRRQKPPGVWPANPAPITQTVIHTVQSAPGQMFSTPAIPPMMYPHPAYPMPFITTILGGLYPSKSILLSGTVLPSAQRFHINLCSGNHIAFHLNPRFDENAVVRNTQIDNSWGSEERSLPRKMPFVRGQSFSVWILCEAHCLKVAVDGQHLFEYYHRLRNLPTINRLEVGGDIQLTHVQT
Method: as §1

Sequence of Galectin-1 (P09382 whole entry): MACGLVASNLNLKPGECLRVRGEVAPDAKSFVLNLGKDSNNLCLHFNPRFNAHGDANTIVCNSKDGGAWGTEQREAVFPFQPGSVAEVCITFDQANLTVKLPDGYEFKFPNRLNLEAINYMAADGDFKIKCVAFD

With `CO[C@@H]1O[C@H](CO)[C@@H](O[C@@H]2O[C@H](CO)[C@H](O)[C@H](O)[C@H]2O)[C@H](O)[C@H]1NC(C)=O` [N-[(2R,3R,4R,5S,6R)-4-hydroxy-6-(hydroxymethyl)-2-methoxy-5-{[(2S,3R,4S,5R,6R)-3,4,5-trihydroxy-6-(hydroxymethyl)oxan-2-yl]oxy}oxan-3-yl]acetamide] as the compound, how does the Kd (Galectin-1) read?
Its Kd is 70 µM.

What about the Kd (Galectin-3) of the same compound?
The Kd was 67 µM.

What about the Kd (Galectin-7) of the same compound?
Its Kd is 490 µM.

And the Kd (Galectin-8)?
The Kd was 700 µM.

And the Kd (Galectin-9)?
Its Kd is 500 µM.

With `CO[C@@H]1O[C@H](CO)[C@@H](O[C@@H]2O[C@H](CO)[C@H](O)[C@H](NC(=S)NCCO)[C@H]2O)[C@H](O)[C@H]1NC(C)=O` [N-[(2R,3R,4R,5S,6R)-5-{[(2S,3R,4S,5R,6R)-3,5-dihydroxy-4-{[(2-hydroxyethyl)carbamothioyl]amino}-6-(hydroxymethyl)oxan-2-yl]oxy}-4-hydroxy-6-(hydroxymethyl)-2-methoxyoxan-3-yl]acetamide] as the compound, how does the Kd (Galectin-1) read?
Its Kd is 49 µM.

What about the Kd (Galectin-3) of the same compound?
Its Kd is 74 µM.

And the Kd (Galectin-7)?
The Kd was 130 µM.

And the Kd (Galectin-8)?
The Kd was 500 µM.

And the Kd (Galectin-9)?
Its Kd is 120 µM.

For `CNC(=S)N[C@H]1[C@@H](O)[C@@H](CO)O[C@@H](O[C@H]2[C@H](O)[C@@H](NC(C)=O)[C@H](OC)O[C@@H]2CO)[C@@H]1O` [N-[(2R,3R,4R,5S,6R)-5-{[(2S,3R,4S,5R,6R)-3,5-dihydroxy-6-(hydroxymethyl)-4-[(methylcarbamothioyl)amino]oxan-2-yl]oxy}-4-hydroxy-6-(hydroxymethyl)-2-methoxyoxan-3-yl]acetamide], which Kd (Galectin-1) is on record?
The Kd was 49 µM.

What about the Kd (Galectin-3) of the same compound?
The Kd was 38 µM.

And the Kd (Galectin-7)?
Its Kd is 65 µM.

And the Kd (Galectin-8)?
The Kd was over 3000 µM.

What about the Kd (Galectin-9) of the same compound?
Its Kd is 110 µM.

`CO[C@@H]1O[C@H](CO)[C@@H](O[C@@H]2O[C@H](CO)[C@H](O)[C@H](NC(=S)N3CCOCC3)[C@H]2O)[C@H](O)[C@H]1NC(C)=O` [N-[(2R,3R,4R,5S,6R)-5-{[(2S,3R,4S,5R,6R)-3,5-dihydroxy-6-(hydroxymethyl)-4-[(morpholin-4-ylmethanethioyl)amino]oxan-2-yl]oxy}-4-hydroxy-6-(hydroxymethyl)-2-methoxyoxan-3-yl]acetamide] was tested. Which Kd (Galectin-1) did it give?
Its Kd is 160 µM.

And the Kd (Galectin-3)?
Its Kd is 69 µM.

`CO[C@@H]1O[C@H](CO)[C@@H](O[C@@H]2O[C@H](CO)[C@H](O)[C@H](NC(=S)Nc3ccccc3)[C@H]2O)[C@H](O)[C@H]1NC(C)=O` [N-[(2R,3R,4R,5S,6R)-5-{[(2S,3R,4S,5R,6R)-3,5-dihydroxy-6-(hydroxymethyl)-4-[(phenylcarbamothioyl)amino]oxan-2-yl]oxy}-4-hydroxy-6-(hydroxymethyl)-2-methoxyoxan-3-yl]acetamide] was tested. Which Kd (Galectin-1) did it give?
Its Kd is 45 µM.

And the Kd (Galectin-3)?
The Kd was 40 µM.

What about the Kd (Galectin-7) of the same compound?
The Kd was 110 µM.

What about the Kd (Galectin-8) of the same compound?
Its Kd is over 3000 µM.

What about the Kd (Galectin-9) of the same compound?
The Kd was 100 µM.

With `C=CCNC(=S)N[C@H]1[C@@H](O)[C@@H](CO)O[C@@H](O[C@H]2[C@H](O)[C@@H](NC(C)=O)[C@H](OC)O[C@@H]2CO)[C@@H]1O` [N-[(2R,3R,4R,5S,6R)-5-{[(2S,3R,4S,5R,6R)-3,5-dihydroxy-6-(hydroxymethyl)-4-[(prop-2-en-1-ylcarbamothioyl)amino]oxan-2-yl]oxy}-4-hydroxy-6-(hydroxymethyl)-2-methoxyoxan-3-yl]acetamide] as the compound, how does the Kd (Galectin-1) read?
Its Kd is 34 µM.

And the Kd (Galectin-3)?
Its Kd is 52 µM.

And the Kd (Galectin-7)?
The Kd was 100 µM.

And the Kd (Galectin-8)?
The Kd was over 3000 µM.

And the Kd (Galectin-9)?
The Kd was 97 µM.

What does the source list for `CO[C@@H]1O[C@H](CO)[C@@H](O[C@@H]2O[C@H](CO)[C@H](O)[C@H](NC(=S)NCCCO)[C@H]2O)[C@H](O)[C@H]1NC(C)=O` [N-[(2R,3R,4R,5S,6R)-5-{[(2S,3R,4S,5R,6R)-3,5-dihydroxy-6-(hydroxymethyl)-4-{[(3-hydroxypropyl)carbamothioyl]amino}oxan-2-yl]oxy}-4-hydroxy-6-(hydroxymethyl)-2-methoxyoxan-3-yl]acetamide]?
Kd (Galectin-1): 23 µM; Kd (Galectin-3): 65 µM; Kd (Galectin-7): 150 µM; Kd (Galectin-8): > 3000 µM; Kd (Galectin-9): 92 µM

For `CO[C@@H]1O[C@H](CO)[C@@H](O[C@@H]2O[C@H](CO)[C@H](O)[C@H](NC(=S)NCc3cccnc3)[C@H]2O)[C@H](O)[C@H]1NC(C)=O` [N-[(2R,3R,4R,5S,6R)-5-{[(2S,3R,4S,5R,6R)-3,5-dihydroxy-6-(hydroxymethyl)-4-{[(pyridin-3-ylmethyl)carbamothioyl]amino}oxan-2-yl]oxy}-4-hydroxy-6-(hydroxymethyl)-2-methoxyoxan-3-yl]acetamide], which Kd (Galectin-1) is on record?
Its Kd is 43 µM.

And the Kd (Galectin-3)?
The Kd was 35 µM.

And the Kd (Galectin-7)?
The Kd was 23 µM.

And the Kd (Galectin-9)?
Its Kd is 47 µM.

What does the source list for `CO[C@@H]1O[C@H](CO)[C@@H](O[C@@H]2O[C@H](CO)[C@H](O)[C@H](NC(N)=S)[C@H]2O)[C@H](O)[C@H]1NC(C)=O` [N-[(2R,3R,4R,5S,6R)-5-{[(2S,3R,4S,5R,6R)-4-(carbamothioylamino)-3,5-dihydroxy-6-(hydroxymethyl)oxan-2-yl]oxy}-4-hydroxy-6-(hydroxymethyl)-2-methoxyoxan-3-yl]acetamide]?
Kd (Galectin-1): 43 µM; Kd (Galectin-3): 65 µM; Kd (Galectin-7): 170 µM; Kd (Galectin-8): > 3000 µM; Kd (Galectin-9): 76 µM

With `CO[C@@H]1O[C@H](CO)[C@@H](O[C@@H]2O[C@H](CO)[C@H](O)[C@H](NC(=S)N[C@H]3[C@@H](O)[C@@H](CO)O[C@@H](O[C@H]4[C@H](O)[C@@H](NC(C)=O)[C@H](OC)O[C@@H]4CO)[C@@H]3O)[C@H]2O)[C@H](O)[C@H]1NC(C)=O` [N-[(2R,3R,4R,5S,6R)-5-{[(2S,3R,4S,5R,6R)-4-({[(2S,3R,4S,5R,6R)-2-{[(2R,3S,4R,5R,6R)-5-acetamido-4-hydroxy-2-(hydroxymethyl)-6-methoxyoxan-3-yl]oxy}-3,5-dihydroxy-6-(hydroxymethyl)oxan-4-yl]carbamothioyl}amino)-3,5-dihydroxy-6-(hydroxymethyl)oxan-2-yl]oxy}-4-hydroxy-6-(hydroxymethyl)-2-methoxyoxan-3-yl]acetamide] as the compound, how does the Kd (Galectin-1) read?
The Kd was 58 µM.

And the Kd (Galectin-3)?
The Kd was 160 µM.

And the Kd (Galectin-7)?
The Kd was 170 µM.

And the Kd (Galectin-8)?
Its Kd is over 3000 µM.

And the Kd (Galectin-9)?
Its Kd is 240 µM.

What does the source list for `CO[C@@H]1O[C@H](CO)[C@@H](O[C@@H]2O[C@H](CO)[C@H](O)[C@H](NC(=S)NCc3ccccc3)[C@H]2O)[C@H](O)[C@H]1NC(C)=O` [N-[(2R,3R,4R,5S,6R)-5-{[(2S,3R,4S,5R,6R)-4-[(benzylcarbamothioyl)amino]-3,5-dihydroxy-6-(hydroxymethyl)oxan-2-yl]oxy}-4-hydroxy-6-(hydroxymethyl)-2-methoxyoxan-3-yl]acetamide]?
Kd (Galectin-1): 35 µM; Kd (Galectin-3): 15 µM

Which Kd (Galectin-1) does the source give for `CCCCNC(=S)N[C@H]1[C@@H](O)[C@@H](CO)O[C@@H](O[C@H]2[C@H](O)[C@@H](NC(C)=O)[C@H](OC)O[C@@H]2CO)[C@@H]1O` [N-[(2R,3R,4R,5S,6R)-5-{[(2S,3R,4S,5R,6R)-4-[(butylcarbamothioyl)amino]-3,5-dihydroxy-6-(hydroxymethyl)oxan-2-yl]oxy}-4-hydroxy-6-(hydroxymethyl)-2-methoxyoxan-3-yl]acetamide] here?
Its Kd is 23 µM.

What about the Kd (Galectin-3) of the same compound?
Its Kd is 23 µM.

What about the Kd (Galectin-7) of the same compound?
Its Kd is 130 µM.

What about the Kd (Galectin-8) of the same compound?
The Kd was over 3000 µM.

And the Kd (Galectin-9)?
Its Kd is 69 µM.

For `CO[C@@H]1O[C@H](CO)[C@@H](O[C@@H]2O[C@H](CO)[C@H](O)[C@H](NC(=S)NC3CCCCC3)[C@H]2O)[C@H](O)[C@H]1NC(C)=O` [N-[(2R,3R,4R,5S,6R)-5-{[(2S,3R,4S,5R,6R)-4-[(cyclohexylcarbamothioyl)amino]-3,5-dihydroxy-6-(hydroxymethyl)oxan-2-yl]oxy}-4-hydroxy-6-(hydroxymethyl)-2-methoxyoxan-3-yl]acetamide], which Kd (Galectin-1) is on record?
Its Kd is 40 µM.

What about the Kd (Galectin-3) of the same compound?
The Kd was 57 µM.

And the Kd (Galectin-7)?
Its Kd is 24 µM.

And the Kd (Galectin-8)?
The Kd was 650 µM.

And the Kd (Galectin-9)?
The Kd was 80 µM.

What does the source list for `CCN(CC)C(=S)N[C@H]1[C@@H](O)[C@@H](CO)O[C@@H](O[C@H]2[C@H](O)[C@@H](NC(C)=O)[C@H](OC)O[C@@H]2CO)[C@@H]1O` [N-[(2R,3R,4R,5S,6R)-5-{[(2S,3R,4S,5R,6R)-4-[(diethylcarbamothioyl)amino]-3,5-dihydroxy-6-(hydroxymethyl)oxan-2-yl]oxy}-4-hydroxy-6-(hydroxymethyl)-2-methoxyoxan-3-yl]acetamide]?
Kd (Galectin-1): 46 µM; Kd (Galectin-3): 43 µM; Kd (Galectin-7): 180 µM; Kd (Galectin-8): > 3000 µM; Kd (Galectin-9): 280 µM
